Test [1] deals with T1, CYP11B2 (Homo sapiens, UniProt P19099).
T1 sequence (P19099 25-503): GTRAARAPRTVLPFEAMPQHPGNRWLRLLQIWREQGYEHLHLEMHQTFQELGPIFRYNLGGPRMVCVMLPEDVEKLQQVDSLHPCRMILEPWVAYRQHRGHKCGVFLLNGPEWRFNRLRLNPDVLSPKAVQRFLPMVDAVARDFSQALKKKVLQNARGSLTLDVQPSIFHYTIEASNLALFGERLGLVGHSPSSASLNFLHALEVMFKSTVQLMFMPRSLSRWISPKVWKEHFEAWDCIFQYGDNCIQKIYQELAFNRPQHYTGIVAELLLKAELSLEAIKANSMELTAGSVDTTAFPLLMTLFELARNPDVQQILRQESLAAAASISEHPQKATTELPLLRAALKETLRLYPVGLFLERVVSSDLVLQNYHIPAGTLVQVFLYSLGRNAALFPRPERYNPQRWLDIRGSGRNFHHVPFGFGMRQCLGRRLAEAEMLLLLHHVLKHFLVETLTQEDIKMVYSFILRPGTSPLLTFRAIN
The settings on record: reported by Stefanie Hahner et al., J Clin Endocrinol Metab 2008; cited from earlier work.

For test [2], the target named is T2, human CYP11B1 (Homo sapiens, UniProt P15538).
T2 construct: expressed in transfected cells; host or cells: Chinese hamster lung-derived fibroblast V79 cells (V79-B1)
T2 sequence (P15538 25-503): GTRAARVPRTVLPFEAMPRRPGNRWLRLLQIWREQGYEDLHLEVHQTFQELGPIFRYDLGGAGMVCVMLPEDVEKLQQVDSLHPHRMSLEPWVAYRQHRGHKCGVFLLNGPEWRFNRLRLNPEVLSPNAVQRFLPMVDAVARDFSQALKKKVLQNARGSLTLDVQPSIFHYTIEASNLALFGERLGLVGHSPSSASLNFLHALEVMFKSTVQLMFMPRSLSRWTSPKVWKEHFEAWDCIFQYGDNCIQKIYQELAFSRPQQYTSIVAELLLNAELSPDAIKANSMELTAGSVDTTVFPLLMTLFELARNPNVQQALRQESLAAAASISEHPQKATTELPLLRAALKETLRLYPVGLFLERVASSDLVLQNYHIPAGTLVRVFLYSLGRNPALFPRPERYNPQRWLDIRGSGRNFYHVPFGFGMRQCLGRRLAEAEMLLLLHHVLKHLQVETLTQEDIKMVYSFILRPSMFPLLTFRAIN
Briefly: Inhibition of cortisol production in V79-B1 cells expressing human CYP11B1 (ELISA). The test is classed as cell-based. To be noted: 11-deoxycortisol 100 nmol/L, 1 hour, unlabeled form, read-out: IC50 against cortisol production. The protocol:
(§1) Chinese hamster lung-derived fibroblast V79 cells (obtained from European Collection of Cell Cultures (ECACC) via DS Pharma Biomedical Co., Ltd.) were allowed to express human CYP11B2 and human CYP11B1 to prepare V79-B2 and V79-B1, respectively. V79-B2 or V79-B1 was inoculated to a microplate and cultured overnight. Then, corticosterone and 11-deoxycortisol were added at final concentrations of 100 nmol/L into the culture supernatants of V79-B2 and V79-B1, respectively. At the same time, iodometomidate (IMTO) or the unlabeled form of PAY15, PAY21, PAY27, or PAY54 synthesized in Example 2, 5, 8, or 12 was added at a final concentration of 10^−4 to 10^3 nmol/L into the culture supernatants. One hour later, the culture supernatant of V79-B1 was recovered, and the concentration of cortisol, which is a metabolite of CYP11B1, was measured by enzyme-linked immunosorbent assay (ELISA). Four hours later, the culture supernatant of V79-B2 was recovered, and the concentration of aldosterone, which is a metabolite of CYP11B2, was measured by ELISA. […] IC50 against cortisol production/IC50 against aldosterone production was calculated and used as a selectivity factor for CYP11B2.

For test [3], the target named is T1, CYP11B2. Briefly: Inhibition of aldosterone production in V79-B2 cells expressing human CYP11B2 (ELISA). Type of test: cell-based. Also on record: expressed in transfected cells; host or cells: Chinese hamster lung-derived fibroblast V79 cells (V79-B2). The settings on record: for Selectivity factor: IC50 against cortisol production/IC50 against aldosterone production, selectivity factor for CYP11B2; for pIC50: V79-B2 cells, corticosterone 100 nmol/L, 4 hours, unlabeled form, read-out: IC50 against aldosterone production; for selectivity factor compared with IMTO: selectivity factor for CYP11B2, Table 6. The protocol: as §1

The text below walks through data of US20140187784A1, “RADIOACTIVE QUINOLINONE DERIVATIVE AND PHARMACEUTICAL DRUG COMPRISING THE SAME” (Nihon Medi-Physics Co., Ltd., priority 2012, published 2014).

pIC50: −log10 of the molar value. Read-outs that look alike come from different tables or passages of the source.

Turning to `C[C@H](c1ccccc1)n1cncc1C(=O)OCCF` [FETO, fluoroetomidate], the Selectivity factor in test [1] is reported as 0.145.

In the case of `COC(=O)c1cncn1[C@H](C)c1ccc(I)cc1` [IMTO, iodometomidate, reference compound], the pIC50 in test [2] is 9.89; in test [3] it was 9.85. For the same molecule, the Selectivity factor in test [1] was 0.261; in test [3], 0.93.

Turning to `COC(=O)c1cncn1C(C)c1ccccc1` (stereo not shown) [MTO, metomidate], in test [1], the Selectivity factor is listed as 0.275 and the “selectivity for CYP11B1 versus CYP11B2” value is recorded as “higher selectivity for steroid 11β-hydroxylase (CYP11B1) than that for aldosterone synthase (CYP11B2)”.

Take `O=C1CCc2cc(-c3cncc(I)c3)cc3c2N1CC3` [PAY21, 8-(5-iodopyridin-3-yl)-1,2,5,6-tetrahydro-4H-pyrrolo[3,2,1-ij]quinolin-4-one]: in test [2], the negative-log IC50 (pIC50) was 7.68. Besides, in test [3], the Selectivity factor amounted to 26.09, the pIC50 was 9.09 and the “selectivity factor compared with IMTO” value is “higher than that of IMTO”.

In the case of `O=C1CCc2cc(-c3cncc(OCCF)c3)cc3c2N1CCC3` [PAY27, 9-(5-(2-fluoroethyloxy)pyridin-3-yl)-1,2,6,7-tetrahydro-5H-pyrido[3,2,1-ij]quinolin-3-one], in test [2], the negative logarithm of the IC50 (pIC50) was 7.10. In test [3], the Selectivity factor was 81.42, the pIC50 is 9.01 and the “selectivity factor compared with IMTO” value was “higher than that of IMTO”.

`O=C1CCc2cc(-c3cncc(OCCF)c3)cc3c2N1CC3` [PAY54, 8-(5-(2-fluoroethyloxy)pyridin-3-yl)-1,2,5,6-tetrahydro-4H-pyrrolo[3,2,1-ij]quinolin-4-one]: the pIC50 in test [2] was 7.88. For the same molecule, in test [3], the Selectivity factor is on record as 55.49, the pIC50 was 9.62 and the “selectivity factor compared with IMTO” value was “higher than that of IMTO”.
